Experimental data reported in publication PMC13083723 (Patterns, 2026).
Residues, ends and D or L forms follow the SMILES beside them. *: point of attachment. PhAc = O=C(Cc1ccccc1)*

Tested on: Vero-E6 cells
Assay: cells
Assay type: cell-based
Conditions: Chlorocebus sabaeus, Vero C1008, 24 h, read-out: PL_Result

Compound	activation at 10 µM [%]
C[C@]12CC[C@H](O)C[C@H]1CC[C@@H]1[C@@H]2CC[C@]2(C)[C@@](O)(c3ccoc3)CC[C@]12O [SPE_K11672787]	-0.921
CCN(CC)Cc1ccc(C(=O)N(CCc2ccccc2OC)[C@@H]2CCNC2)cc1 [SPE_K11821338]	-4.98
CN(C)CC(=O)Nc1ccc2[nH]c(=O)c3ccccc3c2c1 [SPE_K11853856]	-0.459
CCC(=O)NO [SPE_K11984358]	-5.92
CC(=O)Nc1cccc(-n2c(=O)n(C3CC3)c(=O)c3c(Nc4ccc(I)cc4F)n(C)c(=O)c(C)c32)c1 [SPE_K12343256]	-1.89
Cc1c(N(C)C)c(=O)n(-c2ccccc2)n1C [SPE_K12568846]	-3.72
Oc1nc(-c2ccc(C(F)(F)F)cc2)nc2c1CSCC2 [SPE_K12762134]	-6.13
CCc1ccc2c(-c3cccc(Cl)c3)nc(=O)n(CC)c2n1 [SPE_K12932420]	0.000931
Cc1c(C2CCN(CCc3ccccc3)CC2)noc1-c1ccc(Cl)cc1 [SPE_K13211965]	49
CCN(CC)Cc1ccc2cc(COC(=O)Nc3ccc(C(=O)NO)cc3)ccc2c1 [SPE_K13810148]	-13.8
COc1ccc(C(=O)/C(Cc2cc(OC)c(OC)c(OC)c2)=C(\C(=O)O)c2ccc3c(c2)OCO3)cc1 [SPE_K13826399]	12.9
CC(=O)C1(N)Cc2c(O)c3c(c(O)c2[C@@H](O[C@H]2C[C@H](O)[C@H](O)CO2)C1)C(=O)c1ccccc1C3=O (stereo partly shown) [SPE_K13843533]	6.95
CCCc1nc(C)c2c(=O)[nH]c(-c3cc(S(=O)(=O)N4CCN(CC)CC4)ccc3OCC)nn12 [SPE_K13926615]	1
COc1cc(NS(=O)(=O)c2ccc(N)cc2)ncn1 [SPE_K14116214]	-1.27
COc1ccc2cc3[n+](cc2c1OC)CCc1cc2c(cc1-3)OCO2 [SPE_K14796088]	-2.9
O=C(O)c1ccc(-c2c[nH]c3ncc(-c4ccccc4)cc23)cc1C1CCCC1 [SPE_K14991967]	-4.54
Cc1ccc(S(=O)(=O)/C=C/C#N)cc1 [SPE_K15025317]	-2.64
CC(C)C[C@H](NC(=O)CNC(=O)c1cc(Cl)ccc1Cl)B1OC(=O)C(CC(=O)O)(CC(=O)O)O1 [SPE_K15203492]	-7.87
COc1cc2c(cc1C(F)(F)F)N(C(=O)Nc1cc(F)cc(-c3cccnc3)c1)CC2 [SPE_K15424032]	13.1
Cn1ncc2c(N3CCOCC3)nc(-c3cccc(O)c3)nc21 [SPE_K15858023]	-6.72
O=C(CC(c1ccccc1)c1ccccc1)N1CCN(C(c2ccccc2)c2ccccc2)CC1 [SPE_K16037980]	-13.7

Compound	activation at 10 µM [%]
CCCCN(CCCC)C(=O)CN1C[C@H](c2ccc3c(c2)OCO3)[C@@H](C(=O)O)[C@@H]1c1ccc(OC)cc1 [SPE_K16295392]	-6.93
CC(C)c1c(NC(=O)Nc2ccc(Cl)cc2)c(=O)n(-c2ccccc2)n1C [SPE_K16497916]	-9.16
Cn1c2c(c3ccccc31)CCNCC2 [SPE_K16551401]	7.36
CN1C(=O)OC(C)(C)C1=O [SPE_K16606819]	-11.7
c1ccc(-c2n[nH]c3c2oc2ccccc23)cc1 [SPE_K16664969]	-3.59
CCN1C(=O)CN=C2NC=C(c3ccc(-c4nnc[nH]4)nc3C)N=C21 [SPE_K16755045]	5.12
CN1CCN(c2nc(C3=C(c4c[nH]c5ccccc45)C(=O)NC3=O)c3ccccc3n2)CC1 [SPE_K16761703]	37.5
CN1CCN(c2ccc3nc(-c4ccc5nc(-c6ccc(O)cc6)[nH]c5c4)[nH]c3c2)CC1 [SPE_K17026858]	-8.8
COc1nccnc1NS(=O)(=O)c1ccc(N)cc1 [SPE_K17205817]	-0.746
COc1ccccc1N1CCN(CCCCNC(=O)c2ccc3ccccc3c2)CC1 [SPE_K17378184]	28.8
C[C@H](NC(=O)/C(C#N)=C/c1ccc(O)c(O)c1)c1ccccc1 [SPE_K17415526]	-1.61
O=C(NCCCN1CCOCC1)c1ccc(Cl)cc1 [SPE_K17979676]	-11.4
CCCCC/C=C\C/C=C\C/C=C\CCCCC(=O)O [SPE_K18059238]	1.69
CC(C)CNc1nc(-c2cccc3ncccc23)cn2c(-c3ccc(C(=O)NC4CC4)cc3)cnc12 [SPE_K18530250]	-11.5
C[C@]12CC[C@H](O)C[C@H]1CC[C@@H]1[C@@H]2C[C@@H](O)[C@]2(C)[C@@H](C3=CC(=O)OC3)CC[C@]12O [SPE_K18619710]	-13.9
CCN(c1ccccc1)c1cc(NC)[n+](C)c(C)n1 [SPE_K18678457]	-5.38
CN(C)C(=O)Oc1cccc([N+](C)(C)C)c1 [SPE_K18922609]	-9.73
CS(=O)(=O)c1ccc(-c2cnc(NCc3ccco3)n3cnnc23)cc1 [SPE_K19002914]	5.68
CCN(CC)CCN(Cc1ccc(-c2ccc(C(F)(F)F)cc2)cc1)C(=O)Cn1c(SCc2ccc(F)cc2)nc(=O)c2c1CCC2 [SPE_K19085898]	-5.09
CC(C)(Oc1ccc(Cl)cc1)C(=O)O [SPE_K19111024]	-0.104
O=C1OC(c2ccc(O)cc2)(c2ccc(O)cc2)c2ccccc21 [SPE_K19227686]	1.99

Compound	activation at 10 µM [%]
Cc1cc(OCc2nc(-c3ccccc3Cl)cs2)ccc1OCC(=O)O [SPE_K19409553]	5.84
COc1nccc(-c2c(-c3ccc(F)cc3)ncn2C2CCNCC2)n1 [SPE_K19412355]	14.6
C[C@H](NC(=O)CNC(=O)c1cccc(Cl)c1)c1ccccc1 [SPE_K19482962]	-10.5
Nc1nc(NCCc2ccc(O)cc2)nc2nc(-c3ccco3)nn12 [SPE_K19605405]	-2.19
COc1ccc(S(=O)(=O)N2CCC[C@H]2C(=O)Nc2cc(C)cc(C)c2)cc1 [SPE_K19781342]	0.676
C[C@H](NC(=O)[C@@H](O)c1cc(F)cc(F)c1)C(=O)N[C@@H]1C(=O)N(C)c2ccccc2-c2ccccc21 [SPE_K20013301]	-13.5
CN1C(=O)N(c2cc(Cl)cc(Cl)c2)C(=O)[C@]12CN(Cc1cc(C(=O)O)cs1)C[C@H]2c1ccc(C#N)cc1 [SPE_K20093108]	-2.08
CCCCCCCCCCCCCCCCCCO [SPE_K20501889]	-5.89
Cn1cc(C(=O)C(=O)N[C@H]2CN3CCC2CC3)c2ccccc21 [SPE_K20714604]	10.1
COc1cc(COc2cc(N)c(Cl)cc2C(=O)CCC2CCN(CCNS(C)(=O)=O)CC2)cc(OC)c1 [SPE_K20742498]	-9.12
O[C@H]1[C@H](O)[C@@H](O)CN2CC[C@H](O)[C@H]12 [SPE_K20897876]	7.21
CNC(=O)c1ccccc1Nc1nc(Nc2ccc(N3CCOCC3)cc2OC)ncc1Cl [SPE_K21025364]	15.8
CCCCc1nc(C)c(CC(=S)N(C)C)c(=O)n1Cc1ccc(-c2ccccc2-c2nnn[nH]2)cc1 [SPE_K21586122]	-5.47
Cc1csc(-c2nnc(Nc3ccc(Oc4ncccc4-c4ccnc(N)n4)cc3)c3ccccc23)c1 [SPE_K21728777]	-11.5
Cn1cc(-c2ccc(F)c(C(F)(F)F)c2)nc1C1CCN(c2ncnc3[nH]ncc23)CC1 [SPE_K21833260]	-1.12
CCOC(=O)c1ccccc1OC(N)=O [SPE_K21892374]	3.89
O=C1CCCN1CC#CCN1CCCC1 [SPE_K21936341]	-3.09
O=C(O)c1cc(-c2ccc(F)cc2F)ccc1O [SPE_K22031190]	-7.97
COc1ccc(C(=O)c2ccccc2O)c(O)c1 [SPE_K22193694]	-2.64
CCOC(=O)CNC(=O)[C@@H]1CCCN1C(=O)Cc1ccccc1 [SPE_K22520627] (PhAc-Pro-Gly-OEt)	-4.57
c1ccc2oc(C3=NCCN3)cc2c1 [SPE_K22745370]	-9.99

Compound	activation at 10 µM [%]
Cc1cc(C)nc(NS(=O)(=O)c2ccc(NC(=S)NC(=O)COc3ccc(Br)cc3Cl)cc2)n1 [SPE_K22829793]	-2.21
Cc1c(CN2CCN(C(=O)[C@H](C)O)CC2)sc2c(N3CCOCC3)nc(-c3cnc(N)nc3)nc12 [SPE_K23228615]	-5.95
CCCCc1nc(Cl)c(C(=O)O)n1Cc1ccc(-c2ccccc2-c2nnn[nH]2)cc1 [SPE_K23533833]	4.67
COc1cccc([C@H](O)C2CCN(CCc3ccc(F)cc3)CC2)c1OC [SPE_K23647661]	-9.45
CC(=O)O[C@H]1CC[C@@]2(C)C(=CC[C@@H]3[C@@H]2CC[C@]2(C)C(c4cccnc4)=CC[C@@H]32)C1 [SPE_K24048528]	-6.34
Cn1c(=O)[nH]c2ncn(C)c2c1=O [SPE_K24084088]	-5.64
COc1cc(/C=C/C(N)=O)cc(OC)c1OC [SPE_K24507548]	-1.45
O=C(NC(=O)c1c(F)cccc1Cl)NC1c2ccccc2-c2ccccc21 [SPE_K24527118]	-7.81
Fc1ccc(Cl)cc1-c1nc(Nc2ccncc2)c2nccnc2n1 [SPE_K24566386]	-5.24
CCOC(=O)Nc1ccc2c(c1)N(C(=O)CN(CC)CC)c1ccccc1CC2 [SPE_K24570280]	3.49
CC(C)(S)C(=O)N[C@@H](CS)C(=O)O [SPE_K24697665]	-4.72
Cc1[nH]nc(C(F)(F)F)c1Cc1sc2c(c1C(=O)N1C[C@](C)(O)CO1)c(=O)n(C)c(=O)n2C(C)C [SPE_K25210703]	-5.25
O=S(=O)(NCCCCCCc1ccccc1)c1cccc2c(Cl)cccc12 [SPE_K25875056]	-10.4
CC(C)(C)C(=O)OCC(=O)[C@H]1CC[C@H]2[C@@H]3CCC4=CC(=O)CC[C@]4(C)[C@H]3CC[C@]12C [SPE_K26024145]	-4.69
CCCCC/C=C\C=C/CCCCCCCCC(=O)O [SPE_K26222048]	-6.49
Cc1cc(OCc2nnc(SC3CCCC3)n2-c2cccnc2)ccc1-c1ccc(S(C)(=O)=O)cc1 [SPE_K26253904]	-0.282
COc1ccc(/C=C/C(=O)O)cc1 [SPE_K26273521]	-9.12
CCCCCCCCCCCCCCCc1cccc(OCC(=O)NCCO)c1 [SPE_K26358347]	-8.8
CC(=O)NCCNc1cc(Cl)nn2c(-c3cccc(S(=O)(=O)N(C)C)c3)c(C)nc12 [SPE_K26726854]	0.695
